# In patent US20100166897A1, “COMBINATION OF MONOSACCHARIDES WITH ANTIOXIDANTS AND USE THEREOF” (L'OREAL, priority 2008, published 2010):
# Key:
# [1] = tested on: keratinocytes (HaCat line); test: Proliferation of keratinocytes (HaCat line) in medium deficient in growth factors; Cyquant, Nile red and XTT probes; assay type: cell-based
# Experimental: The keratinocytes (HaCat line) are cultured under two conditions: whole defined culture medium (standard condition) and culture medium deficient in growth factors. This deficient medium gives rise to a controlled delay in cell proliferation. Under these conditions, it is then possible to measure the effects of compounds capable of compensating for the deficiency in growth factors of the culture medium and thus of relaunching the cell multiplication and/or of stimulating cell metabolism.
# The keratinocyte proliferation is measured by means of three markers on the same cell population: the level of DNA, which is proportional to the number of cells (Cyquant probe), the level of constituent polar lipids of cell membranes (Nile red probe) and the mitochondrial respiration, which reflects the general cell metabolism (XTT probe).
# type I procollagen = test: Synthesis of procollagen 1 in reconstructed skin (indirect immunofluorescence); assay type: cell-based, human
# Experimental: Conventional detection via indirect immunofluorescence of type I procollagen in the dermis of the reconstructed skin was also performed on other series of frozen sections (anti-procoll 1 antibody (MAB 1912 Millipore)+FTIC-coupled conjugate (112-095-068 Jackson Immunoresearch)). In order to obtain bearings within the cutaneous architecture during the microscopic examination of the sections, the cell nuclei of the keratinocytes and fibroblasts are localized by staining them with propidium iodide, as described above. Three frozen sections are prepared at random on each reconstructed skin and on each section, and two microscopic fields (25× objective lens) are analysed is by fluorescence microscopy and photographed. The levels of fluorescence proportional to the amount of type I procollagen are compared between the control skin and the skin treated with rhamnose.
# [2] = tested on: dermal fibroblasts of the reconstructed skin; test: Proliferation of fibroblasts in whole reconstructed skin (propidium iodide count on frozen sections); assay type: cell-based, human; details: 5 mM rhamnose; within 48 hours of treatment
# From the text: Rhamnose was studied on a model of whole reconstructed skin in order to measure its anti-ageing efficacy on the dermal compartment.
# Briefly, the model of reconstructed skin used is that described by Bell et al. (Bell E. et al., The reconstitution of living skin, J. Invest. Dermatol., 1983, July; 81): it includes a dermal equivalent on which is reconstructed a multistratified epidermis; the dermal equivalent is manufactured from acid-soluble collagen, culture medium containing serum and normal adult human fibroblasts. After 5 days of shrinkage, this equivalent is inoculated with keratinocytes and then cultured for 6 days in immersion and for 7 days in emersion in order to obtain a multistratified and differentiated epidermis having a horny layer.
# The reconstructed skin is treated with 5 mM rhamnose for 2 days and 5 days in the culture medium; after the treatment, the reconstructed skins are included in Tissue Tek in order to produce frozen sections 7 μm thick with a cryostat. […] Three frozen sections are prepared at random on each reconstructed skin; on each section, two microscopic fields (25× objective lens) are analysed by fluorescence microscopy and photographed. The dermal fibroblasts are thus counted for each reconstructed skin on six images in total representing the six microscopic fields considered. […]
compound,measurement,setting,value
C[C@H](O)[C@H](O)[C@@H](O)[C@@H](O)C=O [rhamnose],number of cells compared with an untreated control,[1]; keratinocytes cultured in medium depleted in growth factor,higher number of cells
same,keratinocyte proliferation,[1]; keratinocytes cultured in medium depleted in growth factors,activate keratinocyte proliferation
same,synthesis of type I procollagen by the fibroblasts,"type I procollagen; 1 mM rhamnose for 120 hours, reconstructed skin",greatly stimulated
same,green fluorescence (proportional to amount of type I procollagen) compared with control skin,"type I procollagen; 1 mM rhamnose for 120 hours, reconstructed skin section",marked increase
same,procollagen 1 synthesis,"type I procollagen; 1 mM, reconstructed skin",stimulation of procollagen 1 synthesis
same,procollagen 1 synthesis,"type I procollagen; 5 mM, reconstructed skin",stimulation of procollagen 1 synthesis
same,growth of the dermal fibroblasts of the reconstructed skin,[2],stimulation of growth
